{"source": "patent US20240398767A1", "about": "“INHIBITORS OF THE MTDH-SND1 PROTEIN COMPLEX FOR CANCER THERAPY” (The Trustees of Princeton University, priority 2021, published 2024)", "key": {"[1]": {"assay": "Toxicity in 4TO7 metastasis-bearing mice (ALT/AST, blood cell counts, small intestine)", "type": "in vivo", "experimental": "FIG. 7E, Serum from mice in FIG. 7A were collected for ALT and AST activity measurement following the standard protocol (Sigma). Data represent mean±SEM. AST, n=8 replicates from 6 mice; ALT, n=9 replicates from 6 mice. Significance determined by one-way ANOVA analysis with Sidak's test for multiple comparisons.\nFIG. 7F, Blood samples were drawn from the heart of mice in FIG. 7A, and blood cell counts were performed with the Sysemx XN-3000 Hematology System (Sysmex America, Inc.). Data represent mean±SEM. n=6 mice per group. Significance determined by one-way ANOVA analysis with Sidak's test for multiple comparisons.\nFIG. 7G, Small intestine samples were obtained from mice in FIG. 7A. H&E and Alcian blue staining was performed on processed, sliced samples. Scale bar: 200 μm.\nFIG. 7H, Quantification of Alcian blue staining results from FIG. 7G. Data represent mean±SEM. n=12 fields from 6 mice in each group. Significance determined by one-way ANOVA analysis with Sidak's test for multiple comparisons."}, "[2]": {"test_system": "orthotopic PyMT tumors", "assay": "Established orthotopic PyMT tumors in FVB female mice", "type": "in vivo", "experimental": "FIG. 5B, Tumor size was determined. Vehicle, n=10 mice, C26-A6, n=12 mice. Significance determined by Two-Way Repeated Measures ANOVA test.\nFIG. 5C, Tumor mass was determined. Vehicle, n=10 mice, C26-A6, n=12 mice. Size bar, 2 cm.\nFIG. 5D, H&E staining was performed with lungs, and metastatic nodules were counted. The metastatic nodules of the representative lungs were highlighted with red and blue respectively. Vehicle, n=10 lungs; C26-A6, n=12 lungs. Size bar, 5 mm.\nFIG. 13D, Primary tumors from experiment in FIG. 5B were stained with Ki67 and Cleaved-Caspase 3 (Casp-3) antibodies. Size bar, 100 μm.\nFIG. 13E, Positive cells were quantified. Data represent mean±SEM. n=6 mice.\nNext, established orthotopic PyMT tumors^4 were treated with vehicle or C26-A6 (FIG. 5A). […] The results were confirmed with SCP28 xenograft tumor model in NSG mice (FIGS. 13A-13C).\nMethods: Animal models. All procedures involving mice and experimental protocols were approved by the Institutional Animal Care and Use Committees (IACUC) of Princeton University. According to the approved IACUC protocol (1881-20), the primary humane endpoint of tumor burden for an individual mouse is 20 mm in any dimension or a total volume of 4000 mm^3 for mice with multiple tumors. Mice were euthanized before exceeding the limit of tumor burden in this study. In the facility, mice were maintained at 20-22° C. with 14 h:10 h light:dark cycles at 40-70% relative humidity. The Mtdh^fl/fl ES cell lines generated by Mtdh targeting vector (CSD48311) was obtained from the KOMP Repository. The ES cells were injected into the C57BL/6 blastocysts followed by confirmation of germline transmission. Mtdh^fl/fl mice were crossed with FLPe mice to remove the selection marker in the vector. Genotyping (Forward primer: […] (SEQ ID NO:21); Reverse primer: […] (SEQ ID NO:22)) was performed to identify positive mice before they were crossed to other strains that were indicated in each experiment. FLPe (Stock No. 003946), MMTV-PyMT (Stock No. 002374), MMTV-WNT1 (Stock No. 002934), C3 (Stock No. 013591), UBC-Cre^ERT2 (Stock No. 007001), FVB (Stock No. 001800), Balb/C (Stock No. 000651), Athymic nude (Nude) (Stock No. 002019), and NOD Scid Gamma (NSG) (Stock No. 005557) were obtained from Jackson Laboratory. Mice in C57BL/6 background were backcrossed to FVB for at least 10 generations to change the background. […] The tumors were measured by calipers for calculation of tumor volumes (length×width^2/2). For cell lines that are stably labeled with a firefly luciferase expressing vector, lung metastases were monitored by bioluminescent imaging (BLI) and images were processed with Living Image 3D Analysis (version 1.0). […]"}, "[3]": {"test_system": "PyMT tumors with MTDH KO or SND1 KD", "assay": "PyMT tumor models with MTDH KO or SND1 KD in FVB mice", "type": "in vivo, FVB female mice", "conditions": "6 weeks treatment", "experimental": "FIG. 5G, 10 k of the cells of FIG. 5F were inoculated into FVB female mice and treated with or without C26-A6 after primary tumors reached to approximately 2 mm in diameter. 6 weeks after treatment, tumor size was determined. Vehicle, n=10 mice; C26-A6, n=10 mice.\nFIG. 5H, 10 k of the cells of FIG. 5F were inoculated into FVB female mice and treated with or without C26-A6 after primary tumors reached to approximately 2 mm in diameter. 6 weeks after treatment, spontaneous lung metastasis was determined. The lung metastatic areas of the representative lungs were highlighted with red. Vehicle, n=10 mice; C26-A6, n=10 mice. Size bar, 5 mm.\nFIG. 5J, 10 k of the cells of FIG. 5I were injected into FVB females and treated similarly as in FIGS. 5G, 5H. Tumor size was assessed. Vehicle, n=10 mice; C26-A6, n=10 mice.\nFIG. 5K, 10 k of the cells of FIG. 5I were injected into FVB females and treated similarly as in FIGS. 5G, 5H. Lung metastasis was assessed. The lung metastatic areas of the representative lungs were highlighted with red. Vehicle, n=10 mice; C26-A6, n=10 mice. Size bar, 5 mm.\nNext, to further validate that the anti-tumor effect of C26-A6 depends on its on-target effects by disrupting MTDH-SND1 complex, PyMT; UBC-Cre^ERT+/−;Mtdh^fl/fl tumor cells with Mtdh depletion or with endogenous Snd1 KD were employed for the similar assay as in FIG. 5-1a. […]"}, "[4]": {"conditions": "15 mg/kg i.v., continuous treatment"}}, "data": [{"smiles": "COc1ccc(Cl)cc1S(=O)(=O)Nc1cccn2nc(C)nc12", "note": "[Analog C26-A6]", "values": [{"measurement": "tolerability", "setting": "[1]; 15 mg/kg 5 days per week", "result": "well tolerated"}, {"measurement": "enhancement of chemotherapy toxicity", "setting": "[1]; combined with paclitaxel", "result": "did not further enhance the chemotherapy toxicity"}, {"measurement": "primary tumor growth", "setting": "[2]; [4]", "result": "significantly inhibited"}, {"measurement": "spontaneous lung metastasis", "setting": "[2]; [4]", "result": "significantly inhibited"}, {"measurement": "tumor apoptosis (cleaved-Caspase 3)", "setting": "[2]; IHC of primary tumors", "result": "induced tumor apoptosis"}, {"measurement": "tumor proliferation (Ki67)", "setting": "[2]; IHC of primary tumors", "result": "reduced tumor proliferation"}, {"measurement": "tumor growth or metastasis", "setting": "[3]", "result": "did not further inhibit tumor growth or metastasis"}]}]}
